Values after ≈ are worked out from the molar mass of the structure shown. Active and inactive are the calls of the source. The calls are words filed in the database; no cut-off is given here.
Assays:
[1] = molecular target: Phospholipase A2, major isoenzyme (Sus scrofa, UniProt P00592); assay: Inhibition of porcine pancreatic PLA2 after 1 hr by radiometric method
[2] = tested on: Cryptococcus neoformans var. grubii H99; assay: Inhibition of lysophospholipase acyltransferase activity of Cryptococcus neoformans var. grubii H99 PLB assessed as formation of radiolabeled dipalmitoyl phosphatidylcholine at 0.25 to 250 uM at pH 4 by radiometric assay
A549 = assay: Cytotoxicity against human A549 cells after 3 hrs by MTS assay; assay type: cell-based; settings: A549, 3 h
[3] = Cytotoxicity against human erythrocytes assessed as hemolysis after 1 hr; assay type: cell-based, Erythrocyte
MDCK = assay: Cytotoxicity against MDCK cells after 3 hrs by MTS assay; assay type: cell-based; settings: Canis lupus familiaris
[4] = tested on: Cryptococcus neoformans var. grubii H99; assay: Inhibition of lysophospholipid fatty acyl chain hydrolysis activity of Cryptococcus neoformans var. grubii H99 PLB assessed as formation of radiolabeled free fatty acid at 0.25 to 250 uM at pH 4 by radiometric assay
[5] = Inhibition of phospholipid fatty acyl chain hydrolysis activity of Cryptococcus neoformans var. grubii H99 PLB assessed as formation of radiolabeled free fatty acid at pH 4 by radiometric assay
Cryptococcus neoformans = assay: Antifungal activity against Cryptococcus neoformans ATCC 90112 after 48 to 72 hrs by broth microdilution method; assay type: functional; settings: Cryptococcus neoformans, ATCC 90112; for MIC: read-out: MIC
Candida albicans = assay: Antifungal activity against Candida albicans ATCC 10231 after 48 to 72 hrs by broth microdilution method; assay type: functional; settings: Candida albicans, ATCC 10231; for MIC: read-out: MIC
Curvularia australiensis = assay: Antifungal activity against Bipolaris australiensis 03-201798 after 48 to 72 hrs by broth microdilution method; assay type: functional
Candida parapsilosis = assay: Antifungal activity against Candida parapsilosis ATCC 22019 after 48 to 72 hrs by broth microdilution method; assay type: functional; settings: Lodderomyces parapsilosis
Aspergillus fumigatus = assay: Antifungal activity against Aspergillus fumigatus ATCC 204305 after 48 to 72 hrs by broth microdilution method; assay type: functional
Pichia kudriavzevii = assay: Antifungal activity against Candida krusei ATCC 6258 after 48 to 72 hrs by broth microdilution method; assay type: functional
Exophiala spinifera = assay: Antifungal activity against Exophiala spinifera 03-200803 after 48 to 72 hrs by broth microdilution method; assay type: functional
Nakaseomyces glabratus = assay: Antifungal activity against Candida glabrata 04-202345 after 48 to 72 hrs by broth microdilution method; assay type: functional
Rhizopus arrhizus = assay: Antifungal activity against Rhizopus oryzae 05-203111 after 48 to 72 hrs by broth microdilution method; assay type: functional
Aspergillus terreus = assay: Antifungal activity against Aspergillus terreus 05-202844 after 48 to 72 hrs by broth microdilution method; assay type: functional
Aspergillus flavus = assay: Antifungal activity against Aspergillus flavus ATCC 204304 after 48 to 72 hrs by broth microdilution method; assay type: functional
Scedosporium apiospermum = assay: Antifungal activity against Scedosporium apiospermum 05-203100 after 48 to 72 hrs by broth microdilution method; assay type: functional
Lomentospora prolificans = assay: Antifungal activity against Scedosporium prolificans 05-203060 after 48 to 72 hrs by broth microdilution method; assay type: functional
[6] = Solubility at 50 uM; assay type: physicochemical

Sequence of Phospholipase A2, major isoenzyme (P00592 whole entry): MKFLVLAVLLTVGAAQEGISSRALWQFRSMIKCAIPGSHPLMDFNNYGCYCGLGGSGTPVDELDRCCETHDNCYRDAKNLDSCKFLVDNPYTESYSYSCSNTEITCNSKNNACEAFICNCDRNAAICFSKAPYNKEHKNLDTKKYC

CC(C)CCc1cc[n+](CCCCCCCCCCCC[n+]2ccc(CCC(C)C)cc2)cc1
IC50 [1]: 67 µM
Activity [2]: inactive
IC50 (A549): > 350 µM
HC50 at 1 h [3]: > 350 µM
IC50 (MDCK): > 350 µM
Activity [4]: inactive
IC50 [5]: 57 µM
MIC (Cryptococcus neoformans): 2.7 µM
MIC (Candida albicans): 5.5 µM

CCCCCc1cccc[n+]1CCCCCCCCCCCC[n+]1ccccc1CCCCC
IC50 (A549): > 350 µM
HC50 at 1 h [3]: > 350 µM
IC50 (MDCK): 315 µM
MIC (Cryptococcus neoformans): 2.7 µM
MIC (Candida albicans): 2.7 µM

CCc1cc[n+](CCCCCCCCCCCC[n+]2ccc(CC)cc2)cc1
IC50 [1]: > 250 µM
Activity [2]: inactive
IC50 (A549): > 350 µM
IC50 (MDCK): > 350 µM
Activity [4]: inactive
IC50 [5]: 138 µM
MIC (Cryptococcus neoformans): 44 µM
MIC (Candida albicans): 11 µM

CCCCC(CCCC)c1cc[n+](CCCCCCCCCCCC[n+]2ccc(C(CCCC)CCCC)c(C)c2)cc1C
IC50 (A549): 10 µM
HC50 at 1 h [3]: 31 µM
IC50 (MDCK): 10 µM
MIC (Cryptococcus neoformans): 2.7 µM
MIC (Candida albicans): 2.7 µM

Cc1cc[n+](CCCCCCCCCCCC[n+]2ccc(C)cc2)cc1
IC50 [1]: > 250 µM
Activity [2]: inactive
IC50 (A549): > 350 µM
IC50 (MDCK): > 350 µM
Activity [4]: inactive
IC50 [5]: > 250 µM
MIC (Cryptococcus neoformans): 88 µM
MIC (Candida albicans): 22 µM

CCCCCc1ccc[n+](CCCCCCCCCCCC[n+]2cccc(CCCCC)c2)c1
HC50 at 1 h [3]: > 350 µM
MIC (Cryptococcus neoformans): 11 µM
MIC (Candida albicans): 5.5 µM

CCCCCc1cc[n+](CCCCCCCCCCCC[n+]2ccc(CCCCC)cc2)cc1 [listing 1 of 2 here]
MIC (Cryptococcus neoformans): 1.4 µM
MIC (Candida albicans): 2.7 µM

CC(C)CCCc1cc[n+](CCCCCCCCCCCC[n+]2ccc(CCCC(C)C)cc2)cc1
IC50 [1]: > 250 µM
Activity [2]: inactive
IC50 (A549): 54 µM
HC50 at 1 h [3]: 227 µM
IC50 (MDCK): 62 µM
Activity [4]: inactive
IC50 [5]: 11 µM
MIC (Cryptococcus neoformans): 2.7 µM
MIC (Candida albicans): 2.7 µM

C[C@@H]1[C@H](O)[C@@H](C)/C=C/C=C/C=C/C=C/C=C/C=C/C=C/[C@H](O[C@@H]2O[C@H](C)[C@@H](O)[C@H](N)[C@@H]2O)C[C@@H]2O[C@](O)(C[C@@H](O)C[C@@H](O)[C@H](O)CC[C@@H](O)C[C@@H](O)CC(=O)O[C@H]1C)C[C@H](O)[C@H]2C(=O)O [AMPHOTERICIN B]
MIC (Curvularia australiensis): 0.03 µM (≈ 0.0277 µg/mL)
MIC (Candida parapsilosis): 0.13 µM (≈ 0.12 µg/mL)
MIC (Aspergillus fumigatus): 0.54 µM (≈ 0.499 µg/mL)
MIC (Pichia kudriavzevii): 0.54 µM (≈ 0.499 µg/mL)
MIC (Exophiala spinifera): 0.27 µM (≈ 0.25 µg/mL)
MIC (Nakaseomyces glabratus): 1.1 µM (≈ 1.02 µg/mL)
MIC (Cryptococcus neoformans): 0.54 µM (≈ 0.499 µg/mL)
MIC (Rhizopus arrhizus): 0.06 µM (≈ 0.0554 µg/mL)
MIC (Candida albicans): 0.54 µM (≈ 0.499 µg/mL)
MIC (Aspergillus terreus): 1.1 µM (≈ 1.02 µg/mL)
MIC (Aspergillus flavus): 0.54 µM (≈ 0.499 µg/mL)
MIC (Scedosporium apiospermum): 17 µM (≈ 15.7 µg/mL)
MIC (Lomentospora prolificans): 4.3 µM (≈ 3.97 µg/mL)

CCc1ccc[n+](CCCCCCCCCCCC[n+]2cccc(CC)c2)c1
MIC (Cryptococcus neoformans): 88 µM
MIC (Candida albicans): 44 µM

OCCCc1cc[n+](CCCCCCCCCCCC[n+]2ccc(CCCO)cc2)cc1
IC50 [1]: > 250 µM
Activity [2]: inactive
IC50 (A549): > 350 µM
HC50 at 1 h [3]: > 350 µM
IC50 (MDCK): > 350 µM
Activity [4]: inactive
IC50 [5]: > 250 µM
MIC (Cryptococcus neoformans): 88 µM
MIC (Candida albicans): 88 µM

CCCCCCCCc1cc[n+](CCCCCCCCCCCC[n+]2ccc(CCCCCCCC)cc2)cc1
HC50 at 1 h [3]: 98 µM
MIC (Cryptococcus neoformans): 2.7 µM
MIC (Candida albicans): 2.7 µM

c1ccc(CCCc2cc[n+](CCCCCCCCCCCC[n+]3ccc(CCCc4ccccc4)cc3)cc2)cc1
IC50 [1]: 104 µM
Activity [2]: inactive
IC50 (A549): 55 µM
HC50 at 1 h [3]: 67 µM
IC50 (MDCK): 65 µM
Activity [4]: inactive
IC50 [5]: 5 µM
MIC (Cryptococcus neoformans): 2.7 µM
MIC (Candida albicans): 2.7 µM

CCCCCc1cc[n+](CCCCCCCCCCCC[n+]2ccc(CCCCC)cc2)cc1 [listing 2 of 2 here]
Activity [2]: inactive
Activity [4]: inactive

CCCCCCc1cc[n+](CCCCCCCCCCCC[n+]2ccc(CCCCCC)cc2)cc1
IC50 [1]: > 250 µM
Activity [2]: inactive
IC50 (A549): 48 µM
HC50 at 1 h [3]: 129 µM
IC50 (MDCK): 61 µM
Activity [4]: inactive
IC50 [5]: 6 µM
MIC (Cryptococcus neoformans): 2.7 µM
MIC (Candida albicans): 1.4 µM

CC(C)c1cc[n+](CCCCCCCCCCCC[n+]2ccc(C(C)C)cc2)cc1
IC50 (A549): > 350 µM
IC50 (MDCK): > 350 µM
MIC (Cryptococcus neoformans): 44 µM
MIC (Candida albicans): 22 µM

CCCCCc1cc[n+](CCCCCCCCCCCC[n+]2ccc(CCCCC)c(C)c2)cc1C
IC50 [1]: 134 µM
Activity [2]: inactive
IC50 (A549): 122 µM
HC50 at 1 h [3]: > 350 µM
IC50 (MDCK): 145 µM
Activity [4]: inactive
IC50 [5]: 8 µM
MIC (Cryptococcus neoformans): 1.4 µM
MIC (Candida albicans): 2.7 µM

CCCc1cc[n+](CCCCCCCCCCCC[n+]2ccc(CCC)cc2)cc1
MIC (Cryptococcus neoformans): 44 µM
MIC (Candida albicans): 11 µM

CCCCC(CCCC)c1cc[n+](CCCCCCCCCCCC[n+]2ccc(C(CCCC)CCCC)cc2)cc1
IC50 [1]: 53 µM
Activity [2]: inactive
IC50 (A549): 55 µM
HC50 at 1 h [3]: 124 µM
IC50 (MDCK): 56 µM
Activity [4]: inactive
IC50 [5]: 5 µM
MIC (Cryptococcus neoformans): 1.4 µM
MIC (Candida albicans): 1.4 µM

CN1CCC[C@H]1c1ccc[n+](CCCCCCCCCCCC[n+]2cccc([C@@H]3CCCN3C)c2)c1.[Br-].[Br-]
MIC (Cryptococcus neoformans): > 50 µM
MIC (Candida albicans): > 50 µM
solubility [6]: Insoluble

c1cc[n+](CCCCCCCCCCCC[n+]2ccccc2)cc1
IC50 [1]: > 250 µM
Activity [2]: inactive
HC50 at 1 h [3]: > 350 µM
Activity [4]: inactive
IC50 [5]: > 250 µM
MIC (Cryptococcus neoformans): 88 µM
MIC (Candida albicans): 44 µM

CCCCCc1cc[n+](CCCCCCCCCCCC[n+]2ccc(CCCCC)c(CCCCC)c2)cc1CCCCC
MFC (Curvularia australiensis): 2.7 µM
MIC (Curvularia australiensis): 2.7 µM
IC50 [1]: 52 µM
MFC (Candida parapsilosis): 2.7 µM
MIC (Candida parapsilosis): 2.7 µM
MFC (Aspergillus fumigatus): 22 µM
MIC (Aspergillus fumigatus): 11 µM
Activity [2]: inactive
MFC (Pichia kudriavzevii): 2.7 µM
MIC (Pichia kudriavzevii): 2.7 µM
MFC (Exophiala spinifera): 2.7 µM
MIC (Exophiala spinifera): 2.7 µM
MFC (Nakaseomyces glabratus): 1.4 µM
MIC (Nakaseomyces glabratus): 1.4 µM
IC50 (A549): 45 µM
HC50 at 1 h [3]: 17.5 µM
IC50 (MDCK): 70 µM
Activity [4]: inactive
IC50 [5]: 4 µM
MFC (Cryptococcus neoformans): 1.4 µM
MIC (Cryptococcus neoformans): 1.4 µM
MFC (Rhizopus arrhizus): 2.7 µM
MIC (Rhizopus arrhizus): 2.7 µM
MFC (Candida albicans): 2.7 µM
MIC (Candida albicans): 2.7 µM
MFC (Aspergillus terreus): 2.7 µM
MIC (Aspergillus terreus): 1.4 µM
MFC (Aspergillus flavus): 22 µM
MIC (Aspergillus flavus): 11 µM
MFC (Scedosporium apiospermum): 5.5 µM
MIC (Scedosporium apiospermum): 5.5 µM
MFC (Lomentospora prolificans): 5.5 µM
MIC (Lomentospora prolificans): 2.7 µM

OCc1cc[n+](CCCCCCCCCCCC[n+]2ccc(CO)cc2)cc1
MIC (Cryptococcus neoformans): 88 µM
MIC (Candida albicans): 88 µM

C=CCCCc1cc[n+](CCCCCCCCCCCC[n+]2ccc(CCCC=C)cc2)cc1
IC50 [1]: 56 µM
Activity [2]: inactive
IC50 (A549): > 350 µM
HC50 at 1 h [3]: > 350 µM
IC50 (MDCK): > 350 µM
Activity [4]: inactive
IC50 [5]: 47 µM
MIC (Cryptococcus neoformans): 5.5 µM
MIC (Candida albicans): 2.7 µM

CC(C)(C)CCc1cc[n+](CCCCCCCCCCCC[n+]2ccc(CCC(C)(C)C)cc2)cc1
IC50 (A549): 105 µM
HC50 at 1 h [3]: > 350 µM
IC50 (MDCK): 135 µM
MIC (Cryptococcus neoformans): 2.7 µM
MIC (Candida albicans): 5.5 µM

CCCCc1cc[n+](CCCCCCCCCCCC[n+]2ccc(CCCC)cc2)cc1
IC50 (A549): 215 µM
HC50 at 1 h [3]: > 350 µM
IC50 (MDCK): 150 µM
MIC (Cryptococcus neoformans): 11 µM
MIC (Candida albicans): 5.5 µM

CC(C)(C)c1cc[n+](CCCCCCCCCCCC[n+]2ccc(C(C)(C)C)cc2)cc1
IC50 [1]: > 250 µM
Activity [2]: inactive
IC50 (A549): > 350 µM
HC50 at 1 h [3]: > 350 µM
IC50 (MDCK): > 350 µM
Activity [4]: inactive
IC50 [5]: 34 µM
MIC (Cryptococcus neoformans): 11 µM
MIC (Candida albicans): 22 µM

c1ccc(Cc2cc[n+](CCCCCCCCCCCC[n+]3ccc(Cc4ccccc4)cc3)cc2)cc1
MIC (Cryptococcus neoformans): 22 µM
MIC (Candida albicans): 11 µM

Source: ChEMBL document CHEMBL1152529, “Synthesis, antifungal, haemolytic and cytotoxic activities of a series of bis(alkylpyridinium)alkanes” (Bioorg Med Chem, 2009)
